Values of other authors as cited in PMC8711562 (Drug Design, Development and Therapy, 2021).

Tested on: gastric pH
Conditions: beagles

Q: With `COc1ccc2[nH]c([S+]([O-])Cc3ncc(C)c(OC)c3C)nc2c1` (stereo not shown) [Omeprazole] as the compound, how does the “gastric pH elevated to” value read?
A: Its value is 6.
